Laboratory results: patent US10519177B2, “Heterocyclic compounds and uses thereof” (Plexxikon Inc., priority 2013, dated 2019)
pIC50: −log10 of the molar value. Read-outs that look alike come from different tables or passages of the source.

What was measured:
[1] = target: BRD4-BD12 (1-477) (Homo sapiens (Human), UniProt O60885); assay: Alphascreen binding assay BRD4-BD12; details: BRD4(1 2) H4; read-out: Biochemical activity (IC50 μM) BRD4(1 2) H4
Summary of the method: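 First, compound was preincubated 1 h at room temperature with the His-tagged BRD4 protein (BD1 44-164 or tandem BD12 1-477) and acetylated H4 peptide. Next, donor and acceptor beads were added at 7.5 μg/ml final. After 30 min, AlphaScreen emission was recorded.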

[2] = tested on: MV-4-11 cells; assay: Oncology cell growth assay MV-4-11 (CellTiter Glo); type: cell-based; details: Homo sapiens, MV4-11, 72 h, read-out: Cell activity (IC50 μM) MV-4-11 3d-Growth
Summary of the method: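 MV-4-11 AML cells (MLL-AF4), 3000 per well, exposed to 8-point 1:3 compound titration from 10 μM top concentration (0.2% DMSO) for 72 h. Viability by CellTiter Glo luminescence, normalized to DMSO controls; pIC50 from four-parameter curve fit.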

[3] = tested on: bromodomain; assay: at least one of the bromodomain cell assays of Example 57; type: cell-based; details: at least one of the bromodomain cell assays described in Example 57; read-out: IC50 in at least one of the bromodomain cell assays

Compound	IC50 [1] [µM]	IC50 [2] [µM]	pIC50 [3]	IC50 ([2]; MV-4-11, 3d growth) [µM]
Cc1ccc(-c2cn(CC3CCC(F)(F)CC3)c3cc(-c4c(C)noc4C)cnc23)cn1 [P-0397, 4-[1-[(4,4-difluorocyclohexyl)methyl]-3-(6-methyl-3-pyridyl)pyrrolo[3,2-b]pyridin-6-yl]-3,5-dimethyl-isoxazole]	< 1	< 1	> 5.00	–
Cn1cc(-c2cn(CC3CCC(F)(F)CC3)c3cc(-c4ccc(O)nc4)cnc23)cn1 [P-0437, 5-[1-[(4,4-difluorocyclohexyl)methyl]-3-(1-methylpyrazol-4-yl)pyrrolo[3,2-b]pyridin-6-yl]pyridin-2-ol]	< 1	–	> 5.00	< 1
[2H]C([2H])(C1CCC(F)(F)CC1)n1cc(-c2cnco2)c2ncc(-c3c(C)noc3C)cc21 [P-0334, 4-[1-[dideuterio-(4,4-difluorocyclohexyl)methyl]-3-oxazol-5-yl-pyrrolo[3,2-b]pyridin-6-yl]-3,5-dimethyl-isoxazole]	< 1	< 1	> 5.00	–
Cc1noc(C)c1-c1cnc2c(-c3ccc(C(=O)O)s3)cn(CC3CCC(F)(F)CC3)c2c1 [P-0485, 5-[1-[(4,4-difluorocyclohexyl)methyl]-6-(3,5-dimethylisoxazol-4-yl)pyrrolo[3,2-b]pyridin-3-yl]thiophene-2-carboxylic acid]	< 1	–	> 5.00	< 1
COC(=O)c1ccc(-c2cn([C@@H](C)c3ccccn3)c3cc(-c4c(C)noc4C)cnc23)cc1 [P-0509, methyl 4-[6-(3,5-dimethylisoxazol-4-yl)-1-[(1S)-1-(2-pyridyl)ethyl]pyrrolo[3,2-b]pyridin-3-yl]benzoate]	< 1	–	> 5.00	< 1
Cc1noc(C)c1-c1cnc2c(c1)c(CC1CCC(F)(F)CC1)cn2-c1ncc(C(=O)O)cn1 [P-0443, 2-[3-[(4,4-difluorocyclohexyl)methyl]-5-(3,5-dimethylisoxazol-4-yl)pyrrolo[2,3-b]pyridin-1-yl]pyrimidine-5-carboxylic acid]	< 1	–	> 5.00	1 to 10
COc1ncc(-c2cnc3c(-c4cnn(CC(F)(F)F)c4)cn(CC4CCC(F)(F)CC4)c3c2)s1 [P-0452, 5-[1-[(4,4-difluorocyclohexyl)methyl]-3-[1-(2,2,2-trifluoroethyl)pyrazol-4-yl]pyrrolo[3,2-b]pyridin-6-yl]-2-methoxy-thiazole]	< 1	–	> 5.00	1 to 10
Cc1noc(C)c1-c1cnc2c(-c3ccc(NC(=O)NC4CC4)cc3)cn([C@@H](C)c3ccccn3)c2c1 [P-0564, 1-cyclopropyl-3-[4-[6-(3,5-dimethylisoxazol-4-yl)-1-[(1S)-1-(2-pyridyl)ethyl]pyrrolo[3,2-b]pyridin-3-yl]phenyl]urea]	< 1	–	> 5.00	< 1
Cc1noc(C)c1-c1cnc2c(-c3ccc(C(=O)O)cc3)cn(Cc3ccccn3)c2c1 [P-0431, 4-[6-(3,5-dimethylisoxazol-4-yl)-1-(2-pyridylmethyl)pyrrolo[3,2-b]pyridin-3-yl]benzoic acid]	< 1	–	> 5.00	< 1
Cc1noc(C)c1-c1cnc2c(-c3cnn(CC(F)(F)F)c3)cn(CC3CCCC3)c2c1 [P-0551, 4-[1-(cyclopentylmethyl)-3-[1-(2,2,2-trifluoroethyl)pyrazol-4-yl]pyrrolo[3,2-b]pyridin-6-yl]-3,5-dimethyl-isoxazole]	< 1	–	> 5.00	< 1
Cc1ccc(-c2cn(CC3(F)CCCCC3)c3cc(-c4c(C)noc4C)cnc23)cn1 [P-0463, 4-[1-[(1-fluorocyclohexyl)methyl]-3-(6-methyl-3-pyridyl)pyrrolo[3,2-b]pyridin-6-yl]-3,5-dimethyl-isoxazole]	< 1	–	> 5.00	< 1
[2H]C([2H])(C1CCC(F)(F)CC1)n1cc(-c2ccc(OC)nc2)c2ncc(-c3c(C)noc3C)cc21 [P-0343, 4-[1-[dideuterio-(4,4-difluorocyclohexyl)methyl]-3-(6-methoxy-3-pyridyl)pyrrolo[3,2-b]pyridin-6-yl]-3,5-dimethyl-isoxazole]	< 1	< 1	> 5.00	–
COc1cc(-c2cn(CC3CCC(F)(F)CC3)c3cc(-c4c(C)noc4C)cnc23)ccc1C(=O)O [P-0404, 4-[1-[(4,4-difluorocyclohexyl)methyl]-6-(3,5-dimethylisoxazol-4-yl)pyrrolo[3,2-b]pyridin-3-yl]-2-methoxy-benzoic acid]	< 1	< 1	> 5.00	–
Cc1noc(C)c1-c1cnc2c(-c3cnn(C)c3C)cn(CC3CCC(F)(F)CC3)c2c1 [P-0394, 4-[1-[(4,4-difluorocyclohexyl)methyl]-3-(1,5-dimethylpyrazol-4-yl)pyrrolo[3,2-b]pyridin-6-yl]-3,5-dimethyl-isoxazole]	< 1	< 1	> 5.00	–
Cc1noc(C)c1-c1cnc2c(-c3cnn(C(F)F)c3)cn(C(C)c3ccccn3)c2c1 (stereo not drawn) [P-0361, 4-[3-[1-(difluoromethyl)pyrazol-4-yl]-1-[1-(2-pyridyl)ethyl]pyrrolo[3,2-b]pyridin-6-yl]-3,5-dimethyl-isoxazole]	< 1	< 1	> 5.00	–
Cc1noc(C)c1-c1cnc2c(-c3ccc(C(=O)O)cc3)cn([C@@H](c3ccccc3)c3ccccn3)c2c1 [P-0711, 4-[6-(3,5-dimethylisoxazol-4-yl)-1-[(S)-phenyl(2-pyridyl)methyl]pyrrolo[3,2-b]pyridin-3-yl]benzoic acid]	< 1	–	> 5.00	< 1
Cc1noc(C)c1-c1cnc2c(-c3cnn(CC(F)(F)F)c3)cn(CC3(F)CC=C(F)CC3)c2c1 (stereo not drawn) [P-0356, 4-[1-[(1,4-difluorocyclohex-3-en-1-yl)methyl]-3-[1-(2,2,2-trifluoroethyl)pyrazol-4-yl]pyrrolo[3,2-b]pyridin-6-yl]-3,5-dimethyl-isoxazole]	< 1	< 1	> 5.00	–
Cc1cc(-c2cn(CC3(F)CCCCC3)c3cc(-c4c(C)noc4C)cnc23)ccc1C(=O)O [P-0506, 4-[6-(3,5-dimethylisoxazol-4-yl)-1-[(1-fluorocyclohexyl)methyl]pyrrolo[3,2-b]pyridin-3-yl]-2-methyl-benzoic acid]	< 1	–	> 5.00	< 1
Cc1noc(C)c1-c1cnc2[nH]cc(C(O)(c3ccccn3)c3ccccn3)c2c1 [P-0545, [5-(3,5-dimethylisoxazol-4-yl)-1H-pyrrolo[2,3-b]pyridin-3-yl]-bis(2-pyridyl)methanol]	< 1	–	> 5.00	< 1
Cc1noc(C)c1-c1cnc2c(-c3ccc([N+](=O)[O-])cc3)cn(CC3CCC(F)(F)CC3)c2c1 [P-0598, 4-[1-[(4,4-difluorocyclohexyl)methyl]-3-(4-nitrophenyl)pyrrolo[3,2-b]pyridin-6-yl]-3,5-dimethyl-isoxazole]	< 1	–	> 5.00	< 1
Cc1cc(-c2cnc3c(-c4cnn(CC(F)(F)F)c4)cn(CC4CCC(F)(F)CC4)c3c2)cn(C)c1=O [P-0541, 5-[1-[(4,4-difluorocyclohexyl)methyl]-3-[1-(2,2,2-trifluoroethyl)pyrazol-4-yl]pyrrolo[3,2-b]pyridin-6-yl]-1,3-dimethyl-pyridin-2-one]	< 1	–	> 5.00	< 1
Cc1n[nH]c(C)c1-c1cnc2c(-c3cnn(CC(F)(F)F)c3)cn(CC3CCC(F)(F)CC3)c2c1 [P-0440]	< 1	–	> 5.00	< 1
Cc1nnn(C)c1-c1cnc2c(-c3ccc(S(N)(=O)=O)cc3)cn(CC3(F)CCCCC3)c2c1 [P-0479, 4-[6-(3,5-dimethyltriazol-4-yl)-1-[(1-fluorocyclohexyl)methyl]pyrrolo[3,2-b]pyridin-3-yl]benzenesulfonamide]	< 1	–	> 5.00	< 1
Cc1noc(C)c1-c1cnc2c(-c3ccc(O)cc3)cn(CC3(F)CCCCC3)c2c1 [P-0523, 4-[6-(3,5-dimethylisoxazol-4-yl)-1-[(1-fluorocyclohexyl)methyl]pyrrolo[3,2-b]pyridin-3-yl]phenol]	< 1	–	> 5.00	< 1
COC(=O)Nc1ccc(-c2cn(CC3(F)CCCCC3)c3cc(-c4c(C)noc4C)cnc23)cc1 [P-0493, methyl N-[4-[6-(3,5-dimethylisoxazol-4-yl)-1-[(1-fluorocyclohexyl)methyl]pyrrolo[3,2-b]pyridin-3-yl]phenyl]carbamate]	< 1	–	> 5.00	< 1
Cc1noc(C)c1-c1cnc2c(-c3cnn(CC(F)(F)F)c3)cn(Cc3ccc(Cl)cc3)c2c1 [P-0365, 4-[1-[(4-chlorophenyl)methyl]-3-[1-(2,2,2-trifluoroethyl)pyrazol-4-yl]pyrrolo[3,2-b]pyridin-6-yl]-3,5-dimethyl-isoxazole]	< 1	< 1	> 5.00	–
Cc1ccc(-c2cn(CC3(F)CCCCC3)c3cc(-c4c(C)noc4C)cnc23)cc1C(=O)O [P-0525, 5-[6-(3,5-dimethylisoxazol-4-yl)-1-[(1-fluorocyclohexyl)methyl]pyrrolo[3,2-b]pyridin-3-yl]-2-methyl-benzoic acid]	< 1	–	> 5.00	< 1
